The target of data set [1] is T1, Serine/threonine-protein kinase TBK1 (Homo sapiens, UniProt Q9UHD2).
T1 sequence (Q9UHD2 whole entry): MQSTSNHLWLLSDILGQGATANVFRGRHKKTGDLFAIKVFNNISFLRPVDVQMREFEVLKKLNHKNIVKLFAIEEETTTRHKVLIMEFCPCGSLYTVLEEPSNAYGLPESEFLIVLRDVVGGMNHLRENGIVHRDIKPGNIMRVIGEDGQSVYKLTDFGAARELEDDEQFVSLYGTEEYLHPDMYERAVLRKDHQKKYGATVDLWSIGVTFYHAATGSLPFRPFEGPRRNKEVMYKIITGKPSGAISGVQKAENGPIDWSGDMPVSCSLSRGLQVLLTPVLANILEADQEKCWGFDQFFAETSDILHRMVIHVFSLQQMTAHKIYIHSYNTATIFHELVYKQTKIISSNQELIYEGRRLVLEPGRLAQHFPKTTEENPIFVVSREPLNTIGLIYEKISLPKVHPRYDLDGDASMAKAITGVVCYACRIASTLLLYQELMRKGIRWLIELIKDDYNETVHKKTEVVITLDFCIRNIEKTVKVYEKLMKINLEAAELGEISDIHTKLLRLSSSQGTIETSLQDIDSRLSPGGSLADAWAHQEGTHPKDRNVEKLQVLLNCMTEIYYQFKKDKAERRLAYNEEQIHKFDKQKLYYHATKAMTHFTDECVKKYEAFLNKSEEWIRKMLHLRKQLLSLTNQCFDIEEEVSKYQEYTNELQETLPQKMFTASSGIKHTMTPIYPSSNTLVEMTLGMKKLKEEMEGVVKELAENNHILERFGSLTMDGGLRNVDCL
As to the kind of experiment: Inhibition of recombinant full length human N-terminal His-tagged TBK1 using biotin-labelled Ahx-GDEDFSSFAEPG peptide as substrate preincubated with enzyme for 15 mins followed by substrate addition and further incubated for 30 mins in presence of 1 mM of ATP by TR-FRET assay.

For data set [2], the target named is T2, Inhibitor of nuclear factor kappa-B kinase subunit epsilon (Homo sapiens, UniProt Q14164).
T2 sequence (Q14164 whole entry): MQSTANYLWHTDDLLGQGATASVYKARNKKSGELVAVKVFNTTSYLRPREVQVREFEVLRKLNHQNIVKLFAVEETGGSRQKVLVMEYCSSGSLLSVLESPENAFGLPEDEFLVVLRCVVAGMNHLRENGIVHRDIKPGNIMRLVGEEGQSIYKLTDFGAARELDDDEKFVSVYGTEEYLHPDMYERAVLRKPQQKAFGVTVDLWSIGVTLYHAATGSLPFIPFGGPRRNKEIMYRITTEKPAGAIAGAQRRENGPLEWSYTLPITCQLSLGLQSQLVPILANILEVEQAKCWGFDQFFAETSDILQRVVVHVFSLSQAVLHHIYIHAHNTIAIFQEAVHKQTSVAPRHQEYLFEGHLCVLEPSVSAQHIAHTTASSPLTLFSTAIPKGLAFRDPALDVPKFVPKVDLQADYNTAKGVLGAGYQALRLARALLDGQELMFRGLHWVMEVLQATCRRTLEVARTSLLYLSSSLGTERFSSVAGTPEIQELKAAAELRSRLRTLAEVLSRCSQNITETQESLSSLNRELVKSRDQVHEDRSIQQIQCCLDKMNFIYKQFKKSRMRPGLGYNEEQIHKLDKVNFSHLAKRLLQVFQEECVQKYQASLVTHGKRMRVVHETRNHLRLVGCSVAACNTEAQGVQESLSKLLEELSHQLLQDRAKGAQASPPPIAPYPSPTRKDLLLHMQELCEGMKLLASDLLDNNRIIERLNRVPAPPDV
As to the kind of experiment: Inhibition of recombinant full length human C-terminal GST-tagged IKKepsilon expressed in baculovirus expression system using biotin-labelled Ahx-GDEDFSSFAEPG peptide as substrate preincubated with enzyme for 15 mins followed by substrate addition and further incubated for 30 mins in presence of 10 uM of ATP by TR-FRET assay. A general note: Time-resolved FRET reads energy transfer from a long-lived donor to a nearby acceptor.

A short description of data set [3]: Apparent permeability of compound across apical to basal membrane in human Caco2 cells at 2 uM in DMSO after 2 hrs by LC-MS/MS analysis. The format is ADME, cell-based. Conditions: Caco-2. In general terms: Caco-2 cells form a polarised layer with tight junctions and transporters.
Data set [4] can be described thus: Apparent permeability of compound across basal to apical membrane in human Caco2 cells at 2 uM in DMSO after 2 hrs by LC-MS/MS analysis. Format: ADME, cell-based. Particulars: Caco-2.
Data set [5] in a line: Efflux ratio of apparent permeability across basolateral to apical membrane over apical to basolateral membrane in human Caco2 cells. Format: ADME, cell-based. Conditions: Caco-2.
Data set [6] addresses T1, Serine/threonine-protein kinase TBK1.
The next data set deals with T3, IKK epsilon/TBK1 (Homo sapiens, UniProt Q14164+Q9UHD2).
T3 sequence (Q14164 whole entry): T2 sequence (Q14164 whole entry)
T3 sequence (Q9UHD2 whole entry): T1 sequence (Q9UHD2 whole entry)
As to the kind of experiment: Inhibition of IKKepsilon/TBK1 in human MDB-MB-231 cells transduced with lentiviral vector expressing human IRF3 assessed as decrease in poly(I:C)-stimulated IRF3 phosphorylation at S385/386 residues preincubated for 1 hr followed by poly(I:C) addition and measured after 1 hr. The format is cell-based.

The test system of another data set is SK-MEL-2. As to the kind of experiment: Antiproliferative activity against human SK-MEL-2 cells harboring NRAS/TP53 mutation assessed as reduction in cell viability after 96 hrs by CellTiter-Glo luminescence assay. Format: functional, cell-based. Particulars: SK-MEL-2, 96 h. A general note: In ATP-based viability assays light output follows the ATP content of the culture.

Another data set deals with ACHN. As to the kind of experiment: Antiproliferative activity against human ACHN cells harboring CDKN2A mutation assessed as reduction in cell viability after 96 hrs by CellTiter-Glo luminescence assay. The format is functional, cell-based.
Another data set addresses CDK9/cyclin T1 (Homo sapiens, UniProt P50750). As to the kind of experiment: Inhibition of recombinant full length human His-tagged CDK9/CyclinT1 expressed in baculovirus expression system using biotin-labelled Ttds-YISPLKSPYKISEG peptide as substrate preincubated with enzyme for 15 mins followed by substrate addition and further incubated for 25 mins presence of 10 uM of ATP by TR-FRET assay.

In data set [7] the target is T4, Receptor-type tyrosine-protein kinase FLT3 (Homo sapiens, UniProt P36888).
T4 sequence (P36888 whole entry): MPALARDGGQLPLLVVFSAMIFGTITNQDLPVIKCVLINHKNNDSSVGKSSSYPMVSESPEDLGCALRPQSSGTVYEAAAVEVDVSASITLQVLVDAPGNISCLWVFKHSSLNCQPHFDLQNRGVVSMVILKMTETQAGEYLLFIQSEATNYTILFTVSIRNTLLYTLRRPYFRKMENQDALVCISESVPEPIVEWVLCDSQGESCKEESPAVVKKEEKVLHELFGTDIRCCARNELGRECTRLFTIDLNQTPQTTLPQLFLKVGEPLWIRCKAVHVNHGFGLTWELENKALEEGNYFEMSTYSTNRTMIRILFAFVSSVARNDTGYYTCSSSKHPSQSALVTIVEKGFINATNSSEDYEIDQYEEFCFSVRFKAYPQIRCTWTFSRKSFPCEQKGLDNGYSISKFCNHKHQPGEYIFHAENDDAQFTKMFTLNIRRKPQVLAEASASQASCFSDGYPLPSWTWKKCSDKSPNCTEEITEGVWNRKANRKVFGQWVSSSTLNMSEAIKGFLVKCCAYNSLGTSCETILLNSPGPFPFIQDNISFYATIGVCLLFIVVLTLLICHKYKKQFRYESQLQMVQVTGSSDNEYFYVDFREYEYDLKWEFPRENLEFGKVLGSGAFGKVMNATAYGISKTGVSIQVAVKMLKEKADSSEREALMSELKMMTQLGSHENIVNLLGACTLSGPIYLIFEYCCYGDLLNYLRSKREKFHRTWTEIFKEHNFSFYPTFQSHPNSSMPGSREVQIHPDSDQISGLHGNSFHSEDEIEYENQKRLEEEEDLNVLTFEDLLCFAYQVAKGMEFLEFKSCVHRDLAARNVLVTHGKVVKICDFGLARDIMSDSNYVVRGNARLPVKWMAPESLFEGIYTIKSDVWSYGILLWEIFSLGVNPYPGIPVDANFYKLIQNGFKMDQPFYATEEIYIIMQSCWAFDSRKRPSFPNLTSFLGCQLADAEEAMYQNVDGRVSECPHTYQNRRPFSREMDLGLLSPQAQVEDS
As to the kind of experiment: Inhibition of recombinant human N-terminal GST-tagged FLT3 (564 to end residues) expressed in sf21 cells using biotin labelled Ahx-GGEEEEYFELVKKKK peptide as substrate preincubated with enzyme for 15 mins followed by substrate addition and further incubated for 45 mins in presence of 10 uM of ATP by TR-FRET assay.

For data set [8], the target named is Ribosomal protein S6 kinase alpha-6 (Homo sapiens, UniProt Q9UK32). As to the kind of experiment: Inhibition of recombinant full length human His6-tagged RSK4 expressed in baculovirus infected sf21 cells using biotin labelled Ahx-KKLNRTLSFAEPG peptide as substrate preincubated with enzyme for 15 mins followed by substrate addition and further incubated for 30 mins in presence of 10 uM of ATP by TR-FRET assay.
Sequence of Ribosomal protein S6 kinase alpha-6 (Q9UK32 whole entry): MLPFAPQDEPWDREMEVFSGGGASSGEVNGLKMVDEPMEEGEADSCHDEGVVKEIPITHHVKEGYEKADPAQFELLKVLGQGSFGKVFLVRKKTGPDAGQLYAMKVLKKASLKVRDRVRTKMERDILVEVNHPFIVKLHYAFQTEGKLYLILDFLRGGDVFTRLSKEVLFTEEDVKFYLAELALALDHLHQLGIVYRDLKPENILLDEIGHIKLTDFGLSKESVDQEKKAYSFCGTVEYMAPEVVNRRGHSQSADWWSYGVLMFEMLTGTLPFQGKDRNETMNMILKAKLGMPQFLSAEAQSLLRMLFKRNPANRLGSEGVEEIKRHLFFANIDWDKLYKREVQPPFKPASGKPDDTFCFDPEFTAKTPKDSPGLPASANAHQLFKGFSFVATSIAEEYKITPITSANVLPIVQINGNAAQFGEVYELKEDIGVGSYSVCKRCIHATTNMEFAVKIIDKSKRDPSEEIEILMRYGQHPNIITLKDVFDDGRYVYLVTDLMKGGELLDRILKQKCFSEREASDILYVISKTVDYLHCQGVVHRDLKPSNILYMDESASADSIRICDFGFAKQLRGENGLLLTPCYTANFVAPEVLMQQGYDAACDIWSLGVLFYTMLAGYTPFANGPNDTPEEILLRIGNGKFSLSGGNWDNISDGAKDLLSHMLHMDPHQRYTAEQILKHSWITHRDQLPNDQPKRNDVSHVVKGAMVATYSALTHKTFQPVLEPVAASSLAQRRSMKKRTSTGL

Each structure is given as a SMILES string.

Sequence of CDK9/cyclin T1 (O60563 whole entry): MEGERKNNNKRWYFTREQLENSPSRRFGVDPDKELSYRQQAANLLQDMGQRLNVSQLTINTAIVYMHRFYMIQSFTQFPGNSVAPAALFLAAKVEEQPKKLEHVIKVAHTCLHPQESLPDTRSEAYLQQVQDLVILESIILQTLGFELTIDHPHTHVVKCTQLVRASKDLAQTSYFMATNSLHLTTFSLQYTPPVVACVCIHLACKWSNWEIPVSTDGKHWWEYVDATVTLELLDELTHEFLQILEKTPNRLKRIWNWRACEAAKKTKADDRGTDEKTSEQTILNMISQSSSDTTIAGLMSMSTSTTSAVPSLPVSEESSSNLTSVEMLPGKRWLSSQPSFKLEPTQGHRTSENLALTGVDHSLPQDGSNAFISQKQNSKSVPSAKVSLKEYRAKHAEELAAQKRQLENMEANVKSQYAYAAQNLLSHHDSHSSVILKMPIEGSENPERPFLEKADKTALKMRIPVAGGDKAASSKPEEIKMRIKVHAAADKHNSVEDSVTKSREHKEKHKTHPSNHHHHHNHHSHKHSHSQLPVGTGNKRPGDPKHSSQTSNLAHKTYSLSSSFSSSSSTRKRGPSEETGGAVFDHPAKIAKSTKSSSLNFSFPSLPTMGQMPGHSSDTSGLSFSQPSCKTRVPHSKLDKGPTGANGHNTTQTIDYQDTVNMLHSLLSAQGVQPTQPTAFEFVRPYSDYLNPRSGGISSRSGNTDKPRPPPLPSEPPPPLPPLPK
Sequence of CDK9/cyclin T1 (P50750 whole entry): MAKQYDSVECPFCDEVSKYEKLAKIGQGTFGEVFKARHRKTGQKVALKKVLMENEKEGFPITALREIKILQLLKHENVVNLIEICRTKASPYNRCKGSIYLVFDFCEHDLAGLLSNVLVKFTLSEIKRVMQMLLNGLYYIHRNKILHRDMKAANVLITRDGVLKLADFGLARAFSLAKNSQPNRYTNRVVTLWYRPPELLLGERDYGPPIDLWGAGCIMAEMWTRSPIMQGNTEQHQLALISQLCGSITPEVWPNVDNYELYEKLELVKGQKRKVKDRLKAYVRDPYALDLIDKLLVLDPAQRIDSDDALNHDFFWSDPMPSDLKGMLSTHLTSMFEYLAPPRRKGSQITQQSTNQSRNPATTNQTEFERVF

By IC50 is commonly meant the midpoint of a concentration-inhibition curve. The term Papp A→B denotes how fast a substance crosses the layer from the apical side. In general, Papp B→A refers to the apparent permeability from the basolateral to the apical side of a cell layer. A word on the efflux ratio: it is a quotient of directional permeabilities that is used to spot active efflux. As for `Cc1noc(-c2ccc3nc(Nc4cc(CN5CCN(C(=O)C6CC6)CC5)ccn4)[nH]c3c2)n1`, the IC50 in [1] came to 1270 nM; in data set [2], 154 nM; in data set [6], 148 nM. Also, in [3], the Papp A→B at 2 h, 2 µM came to 6.8 ×10⁻⁶ cm/s. Further, the Papp B→A at 2 h, 2 µM in [4] worked out at 15.1 ×10⁻⁶ cm/s. Besides, the efflux ratio in [5] worked out at 2.2.

Regarding `CN(C)c1cc(-c2ccc3nc(Nc4cc(CN5CCN(C(=O)CC(F)(F)F)CC5)ccn4)[nH]c3c2)ccn1`, the IC50 in data set [1] was 388 nM; in data set [2] it was 35 nM; at IKK epsilon/TBK1, 1260 nM; in the data set with SK-MEL-2, 337 nM; in the data set on ACHN, 2240 nM; on CDK9/cyclin T1, 263 nM. Further, the IC50 in [7] stood at 1 nM; in [8], 2830 nM.

As for `CCn1cc(-c2ccc3nc(Nc4cc(CN5CCN(C(=O)CC(F)(F)F)CC5)ccn4)[nH]c3c2)cn1`, the IC50 in data set [1] was found to be 530 nM; in data set [2], 98 nM; at IKK epsilon/TBK1, 1580 nM; at CDK9/cyclin T1 it was 1460 nM; in data set [7], 17 nM; in data set [8], 8850 nM. The apical-to-basolateral permeability (Papp A→B) at 2 h, 2 µM in data set [3] stood at 1.7 ×10⁻⁶ cm/s. In addition, in data set [4], the Papp B→A at 2 h, 2 µM came to 17.3 ×10⁻⁶ cm/s. The efflux ratio in data set [5] turned out to be 10.

Regarding `O=C(NCC1CC1)c1ccc2nc(Nc3cc(CN4CCN(C(=O)CC(F)(F)F)CC4)ccn3)[nH]c2c1`, the IC50 in data set [1] is 1390 nM; in data set [2] it was 80 nM; with SK-MEL-2, 3360 nM; in the data set with ACHN, > 33000 nM; on CDK9/cyclin T1, > 20000 nM; in data set [6], 93 nM. In addition, in data set [3], the Papp A→B at 2 h, 2 µM was determined as 0.39 ×10⁻⁶ cm/s. For the same compound, in data set [4], the Papp B→A at 2 h, 2 µM was determined as 15.5 ×10⁻⁶ cm/s. Moreover, the efflux ratio in data set [5] worked out at 40.

Turning to `N#Cc1ccc2nc(Nc3cc(CN4CCN(C(=O)CC(F)(F)F)CC4)ccn3)[nH]c2c1`, the IC50 worked out at 618 nM in data set [1]; 17 nM in data set [2]; 2030 nM at IKK epsilon/TBK1; 5 nM at CDK9/cyclin T1; 29 nM in data set [6]. Moreover, the Papp A→B at 2 h, 2 µM in [3] amounted to 3.2 ×10⁻⁶ cm/s. Also, the Papp B→A at 2 h, 2 µM in data set [4] is 26.8 ×10⁻⁶ cm/s. Moreover, the efflux ratio in data set [5] came to 8.3.

For the compound `Cc1noc(-c2ccc3nc(Nc4cc(CN5CCN(C(=O)CC6CC6)CC5)ccn4)[nH]c3c2)n1`, the IC50 turned out to be 1920 nM in data set [1] and 226 nM in data set [2]. In addition, in data set [3], the apparent permeability from apical to basolateral (Papp A→B) at 2 h, 2 µM stood at 5.2 ×10⁻⁶ cm/s. The Papp B→A at 2 h, 2 µM in data set [4] was found to be 12.4 ×10⁻⁶ cm/s. For the same compound, the efflux ratio in data set [5] worked out at 2.4.

Turning to `Cc1noc(-c2ccc3nc(Nc4cc([C@H](C)N5CCN(C(=O)CC(F)(F)F)CC5)ccn4)[nH]c3c2)n1`, the half-inhibitory concentration (IC50) in data set [1] came to 2490 nM; in data set [2], 200 nM; at IKK epsilon/TBK1, 3020 nM; in data set [6], 106 nM. In addition, in data set [3], the Papp A→B at 2 h, 2 µM is 11.4 ×10⁻⁶ cm/s. In data set [4], the Papp B→A at 2 h, 2 µM turned out to be 7.9 ×10⁻⁶ cm/s. Moreover, in data set [5], the efflux ratio is 0.7.

The values are drawn from ChEMBL document CHEMBL4376867 (J Med Chem, 2020).
